According to ChEMBL document CHEMBL3885881, “DrugMatrix”:

Species: Rattus norvegicus
Assay: DrugMatrix - Regimen: Daily Repeat
Format: toxicity, organism-based, Sprague-Dawley
Parameters: regimen Daily Repeat, gender Male, age 6-8 weeks
Conditions: in vivo, po, route oral GAVAGE, vehicle .5 % CMC; for ABSOLUTE BASOPHIL / ABSOLUTE EOSINOPHIL / ABSOLUTE LYMPHOCYTE / ABSOLUTE MONOCYTE / ABSOLUTE SEGMENTED NEUTROPHIL / BASOPHIL / EOSINOPHIL / ERYTHROCYTE COUNT / HEMATOCRIT / HEMOGLOBIN / LEUKOCYTE COUNT / LYMPHOCYTE / MEAN CORPUSCULAR HEMOGLOBIN / MEAN CORPUSCULAR HEMOGLOBIN CONCENTRATION / MEAN CORPUSCULAR VOLUME / MONOCYTE / NEUTROPHIL / NUCLEATED RED BLOOD CELLS / PLATELET COUNT: tissue Blood; for ALANINE AMINOTRANSFERASE / ALBUMIN / ALKALINE PHOSPHATASE / ASPARTATE AMINOTRANSFERASE / BLOOD UREA NITROGEN / CARBON DIOXIDE / CHLORIDE / CHOLESTEROL / CREATINE PHOSPHOKINASE / CREATININE / GLUCOSE / LACTATE DEHYDROGENASE / LIPASE / PHOSPHORUS / POTASSIUM / SODIUM / TOTAL BILIRUBIN / TOTAL PROTEIN / URIC ACID: tissue Plasma
[1] = 50 mg/kg, 120 h, dose level Low, time 5 day
[2] = 2500 mg/kg, 72 h, dose level High, time 3 day
[3] = 2500 mg/kg, 120 h, dose level High, time 5 day

Compound: CC(=O)O[C@]1(C(C)=O)CC[C@H]2[C@@H]3C=C(Cl)C4=CC(=O)[C@@H]5C[C@@H]5[C@]4(C)[C@H]3CC[C@@]21C [CYPROTERONE ACETATE]
- ABSOLUTE BASOPHIL [1]: 0 CELLS/uL
- ABSOLUTE EOSINOPHIL [1]: 24.33 CELLS/uL
- ABSOLUTE LYMPHOCYTE [1]: 7928 CELLS/uL
- ABSOLUTE MONOCYTE [1]: 144 CELLS/uL
- ABSOLUTE SEGMENTED NEUTROPHIL [1]: 637 CELLS/uL
- BASOPHIL [1]: 0%
- EOSINOPHIL [1]: 0.33%
- ERYTHROCYTE COUNT [1]: 5.93 x10E6/uL
- HEMATOCRIT [1]: 37.07%
- HEMOGLOBIN [1]: 14.9 G/DL
- LEUKOCYTE COUNT [1]: 8.73 x10E3/uL
- LYMPHOCYTE [1]: 90.33%
- MEAN CORPUSCULAR HEMOGLOBIN [1]: 25.13 pg
- MEAN CORPUSCULAR HEMOGLOBIN CONCENTRATION [1]: 40.23 G/DL
- MEAN CORPUSCULAR VOLUME [1]: 62.47 fL
- MONOCYTE [1]: 1.67%
- NEUTROPHIL [1]: 7.67%
- NUCLEATED RED BLOOD CELLS [1]: 0 /100WBC
- PLATELET COUNT [1]: 1115.67 x10E3/uL
- ALANINE AMINOTRANSFERASE [1]: 68.33 u/L
- ALBUMIN [1]: 4.4 G/DL
- ALKALINE PHOSPHATASE [1]: 339 u/L
- ASPARTATE AMINOTRANSFERASE [1]: 88 u/L
- BLOOD UREA NITROGEN [1]: 15.67 mg/dL
- CARBON DIOXIDE [1]: 30.33 mmol/L
- CHLORIDE [1]: 101 MEQ/L
- CHOLESTEROL [1]: 79 mg/dL
- CREATINE PHOSPHOKINASE [1]: 291 u/L
- CREATININE [1]: 0.18 mg/dL
- GLUCOSE [1]: 165 mg/dL
- LACTATE DEHYDROGENASE [1]: 169 u/L
- LIPASE [1]: 11 u/L
- PHOSPHORUS [1]: 12.3 mg/dL
- POTASSIUM [1]: 5.54 MEQ/L
- SODIUM [1]: 144.17 MEQ/L
- TOTAL BILIRUBIN [1]: 0.13 mg/dL
- TOTAL PROTEIN [1]: 6.5 G/DL
- URIC ACID [1]: 1.33 mg/dL
- ABSOLUTE BASOPHIL [2]: 0 CELLS/uL
- ABSOLUTE EOSINOPHIL [2]: 156.67 CELLS/uL
- ABSOLUTE LYMPHOCYTE [2]: 10772 CELLS/uL
- ABSOLUTE MONOCYTE [2]: 88.67 CELLS/uL
- ABSOLUTE SEGMENTED NEUTROPHIL [2]: 1249.33 CELLS/uL
- BASOPHIL [2]: 0%
- EOSINOPHIL [2]: 1.33%
- ERYTHROCYTE COUNT [2]: 5.59 x10E6/uL
- HEMATOCRIT [2]: 36.7%
- HEMOGLOBIN [2]: 14.03 G/DL
- LEUKOCYTE COUNT [2]: 12.27 x10E3/uL
- LYMPHOCYTE [2]: 88%
- MEAN CORPUSCULAR HEMOGLOBIN [2]: 25.07 pg
- MEAN CORPUSCULAR HEMOGLOBIN CONCENTRATION [2]: 38.23 G/DL
- MEAN CORPUSCULAR VOLUME [2]: 65.63 fL
- MONOCYTE [2]: 0.67%
- NEUTROPHIL [2]: 10%
- NUCLEATED RED BLOOD CELLS [2]: 0.33 /100WBC
- PLATELET COUNT [2]: 1080.33 x10E3/uL
- ALANINE AMINOTRANSFERASE [2]: 69.67 u/L
- ALBUMIN [2]: 4.07 G/DL
- ALKALINE PHOSPHATASE [2]: 424.67 u/L
- ASPARTATE AMINOTRANSFERASE [2]: 99.67 u/L
- BLOOD UREA NITROGEN [2]: 14.33 mg/dL
- CARBON DIOXIDE [2]: 30 mmol/L
- CHLORIDE [2]: 100.67 MEQ/L
- CHOLESTEROL [2]: 113.33 mg/dL
- CREATINE PHOSPHOKINASE [2]: 639.67 u/L
- CREATININE [2]: 0.2 mg/dL
- GLUCOSE [2]: 151.33 mg/dL
- LACTATE DEHYDROGENASE [2]: 603.33 u/L
- LIPASE [2]: 12.67 u/L
- PHOSPHORUS [2]: 11.2 mg/dL
- POTASSIUM [2]: 6.3 MEQ/L
- SODIUM [2]: 141.73 MEQ/L
- TOTAL BILIRUBIN [2]: 0.13 mg/dL
- TOTAL PROTEIN [2]: 6 G/DL
- URIC ACID [2]: 0.83 mg/dL
- ABSOLUTE BASOPHIL [3]: 0 CELLS/uL
- ABSOLUTE EOSINOPHIL [3]: 62.33 CELLS/uL
- ABSOLUTE LYMPHOCYTE [3]: 8852.33 CELLS/uL
- ABSOLUTE MONOCYTE [3]: 146.33 CELLS/uL
- ABSOLUTE SEGMENTED NEUTROPHIL [3]: 2339 CELLS/uL
- BASOPHIL [3]: 0%
- EOSINOPHIL [3]: 0.67%
- ERYTHROCYTE COUNT [3]: 5.55 x10E6/uL
- HEMATOCRIT [3]: 34.3%
- HEMOGLOBIN [3]: 13.77 G/DL
- LEUKOCYTE COUNT [3]: 11.4 x10E3/uL
- LYMPHOCYTE [3]: 80%
- MEAN CORPUSCULAR HEMOGLOBIN [3]: 24.8 pg
- MEAN CORPUSCULAR HEMOGLOBIN CONCENTRATION [3]: 40.13 G/DL
- MEAN CORPUSCULAR VOLUME [3]: 61.87 fL
- MONOCYTE [3]: 1.33%
- NEUTROPHIL [3]: 18%
- NUCLEATED RED BLOOD CELLS [3]: 0.33 /100WBC
- PLATELET COUNT [3]: 1381.33 x10E3/uL
- ALANINE AMINOTRANSFERASE [3]: 94 u/L
- ALBUMIN [3]: 4.3 G/DL
- ALKALINE PHOSPHATASE [3]: 317.67 u/L
- ASPARTATE AMINOTRANSFERASE [3]: 101.67 u/L
- BLOOD UREA NITROGEN [3]: 21.33 mg/dL
- CARBON DIOXIDE [3]: 23.67 mmol/L
- CHLORIDE [3]: 98.67 MEQ/L
- CHOLESTEROL [3]: 98.67 mg/dL
- CREATINE PHOSPHOKINASE [3]: 467 u/L
- CREATININE [3]: 0.27 mg/dL
- GLUCOSE [3]: 223 mg/dL
- LACTATE DEHYDROGENASE [3]: 496 u/L
- LIPASE [3]: 10.67 u/L
- PHOSPHORUS [3]: 12.8 mg/dL
- POTASSIUM [3]: 6.34 MEQ/L
- SODIUM [3]: 142.07 MEQ/L
- TOTAL BILIRUBIN [3]: 0.17 mg/dL
- TOTAL PROTEIN [3]: 7 G/DL
- URIC ACID [3]: 2.1 mg/dL
